The test system of series [1] is STZ-treated insulin deficient ICR male mice. Put plainly: Acute glucose lowering in streptozotocin (STZ)-treated insulin deficient ICR mice. It counts as in vivo, mouse. As to conditions: 30 μmol/kg i.v. LPC. The protocol: (§1) Animals. Male ICR mice were purchased from hyochang science (ROK). C57BLKSJ-db/db mice were purchased from SLC (Japan). After intravenous injection of LPC, blood glucose was measured regularly with a portable glucose meter (Gluco-Dr, ROK) after tail snipping. For measurement of serum insulin, blood samples of mice were determined with the insulin-RIA Kit (LINCO, Missouri). Insulin deficient mice were induced in male ICR mice by two consecutive daily intraperitoneal injection of STZ (200 mg/kg) dissolved in sodium citrate (pH 5.5). On the third day after the last STZ injection, acute glucose lowering effect was analyzed after intravenous injection of vehicle, LPC or insulin as described above.
(§2) Eight-week-old male mice were intravenously injected with PBS, insulin, LPC, or LPE. Blood glucose was monitored after dosing (0 to 120 min). […] All animals had free access to water. Animal care was in accordance with institutional guidelines. All data are shown as means±SE (n=5-6).*P<0.05.

For another series, the system named is C2C12 muscle cells. The experiment in a line: Glucose uptake in C2C12 muscle cells (LPC). It counts as cell-based. As to conditions: data not shown.
In the next series the test system is GLUT4. Put plainly: GLUT4 translocation to the plasma membrane in 3T3-L1 adipocytes. It counts as cell-based. As to conditions: 20 μM, 10 min, plasma membrane fraction. The protocol: Membrane fractionation of adipocytes. For obtaining total membranes (TM) from 3T3-L1 adipocytes, cells were collected into 10 ml of ice-cold HES buffer (250 mM sucrose, 1 mM EDTA, 1 mM phenylmethylsulfonyl fluoride [PMSF], 1 μM pepstatin, 1 μM aprotinin, 1 μM leupeptin, and 20 mM HEPES, pH 7.4) and subsequently homogenized with 30 strokes in a glass Dounce homogenizer at 4° C. After centrifugation at 1,000 g for 5 min at 4° C. to remove unbroken cells, the supernatant was then centrifugated at 212,000 g for 90 min at 4° C. to yield a pellet of total cellular membranes. To obtain the plasma membrane (PM) subcellular fraction from 3T3-L1 adipocytes, differential ultracentrifugation was used as described previously (Perrini, S., et al., Diabetes 53, pp. 41-52, 2004).
Immunoblotting. For preparing total cell lysates, 3T3-L1 adipocytes were washed with Ca^2+/Mg^2+-free PBS and then lysed in the lysis buffer (50 mM HEPES, pH 7.2, 150 mM NaCl, 50 mM NaF, 1 mM Na3VO4, 10% glycerol, 1% Triton X-100). The lysates were centrifuged at 15,000 rpm for 15 min at 4° C. […]
FIGS. 3A and 3B show LPC stimulates GLUT4 translocation in 3T3-L1 adipocytes. […] In each experiment, the relative increase or decrease in the integrated density value (IDV) of GLUT4 after stimulation with compounds is calculated. B) Quantitation of relative increases is depicted. […]

Another series concerns IRS1 and AKT. Put plainly: IRS1 and AKT phosphorylation in 3T3-L1 adipocytes (immunoblot). To be noted: LPC treatment of 3T3-L1 adipocytes. It counts as cell-based. The protocol: Immunoblotting. For preparing total cell lysates, 3T3-L1 adipocytes were washed with Ca^2+/Mg^2+-free PBS and then lysed in the lysis buffer (50 mM HEPES, pH 7.2, 150 mM NaCl, 50 mM NaF, 1 mM Na3VO4, 10% glycerol, 1% Triton X-100). The lysates were centrifuged at 15,000 rpm for 15 min at 4° C. The proteins were denatured by boiling in laemmli sample buffer for 5 min at 95° C., separated by SDS-PAGE. SDS-gel was transferred to nitrocellulose membrane using Hoefer wet transfer system. Membranes were blocked in TTBS (20 mM Tris-HCl, pH 7.6, 150 mM NaCl, 0.05% Tween 20) containing 5% skimmed milk powder for 30 min and then incubated with antibodies for 3 hours. After washing membranes several times with TTBS, the blots were incubated with HRP (Horseradish peroxidase)-conjugated goat anti-rabbit for 1 hour. The blots were washed with TTBS and developed by ECL.

The next series deals with C57BLKSJ-db/db mice. Put plainly: Acute glucose lowering in insulin-resistant obese db/db mice. It counts as in vivo, mouse. As to conditions: injection of LPC. The protocol: as §1, §2
The subject of series [2] is 3T3-L1 adipocytes. Put plainly: [14C] 2-deoxy-D-glucose uptake in 3T3-L1 adipocytes. It counts as cell-based. To be noted: for stimulation of glucose uptake: equimolar 20 μM, 10 min. The protocol: Cell culture: 3T3-L1 fibroblasts were grown to confluence in DMEM containing a high glucose concentration, 10% fetal bovine serum, 50 U of penicillin per ml, and 50 ug of streptomycin per ml and maintained in a 5% CO2 humidified atmosphere at 37° C. 3T3-L1 was induced to differentiate into adipocytes, as described previously (van den Berghe, N., et al., Mol Cell Biol 14, pp. 2372-2377, 1994).
Glucose uptake measurement. For measuring glucose uptake in 3T3-L1 adipocytes, cells were grown in serum-free DMEM for 16 h and then incubated in the absence or presence of insulin or lysophospholipids for the indicated times at 37° C. Uptake was measured by adding 1 μCi of [^14C] 2-deoxy-D-glucose and 3 mM 2-deoxy-D-glucose. After 10 min, the assay was terminated by two quick washes with ice-cold PBS. Cells were lysed in 0:5 ml of lysis buffer containing 0.5 N NaOH and 0.1% SDS. The cell lysates were used for liquid scintillation counting and nonspecific uptake was assayed in the presence of 10 μM cytochalasin B (van den Berghe, N., et al., Mol Cell Biol 14, pp. 2372-2377, 1994).
FIG. 2A to 2D show the effects of LPC on the glucose uptake in 3T3-L1 adipocytes. […] After these treatments, [^14C] 2-deoxy-D-glucose uptake was measured for 10 min as described in Material Methods. […] FIGS. 2C and 2D show relative [^14C] 2-deoxy-D-glucose uptake in 3T3-L1 adipocytes incubated in the absence (control) or presence of equimolar concentrations (20 μM) of myristoyl lysophosphatidylcholine (14:0 LPC), palmytoyl lysophosphatidylcholine (16:0 LPC), stearoyl lysophosphatidylcholine (18:0 LPC), palmytoyl lysophsophatidylethanolamine (16:0 LPE), palmytoyl lyso-phosphatidylinositol (16:0 LPI), palmytoyl lysophosphatidylglycerol (16:0 LPG) for 10 min. Values are mean±SE of three independent experiments performed in triplicate. *P<0.05 vs. basal.

The subject of series [3] is 3T3-L1 adipocytes. The experiment in a line: Cytotoxicity of LPC concentration used on 3T3-L1 adipocytes. It counts as cell-based. To be noted: 20 μM LPC.
The test system of series [4] is male ICR mice. Put plainly: Serum insulin level in mice after single intravenous injection. It counts as in vivo, mouse. How it is done:
as §1, §2

Series [5] has as its system male ICR mice. Put plainly: Acute blood glucose lowering in normal ICR mice after intravenous lysophospholipid. It counts as in vivo, mouse. The protocol: as §1, §2
The mark [6] stands for this setting: 3T3-L1 adipocytes, 10 min incubation.

`CCCCCCCCCCCCCCCC(=O)OC[C@@H](O)COP(=O)([O-])OCC[N+](C)(C)C` [LPC, palmytoyl lysophosphatidylcholine]: the “blood glucose concentrations in STZ-treated insulin deficient mice” value in [1] was “significantly reduced blood glucose concentrations”. The “rate of glucose uptake in C2C12 muscle cells” value with C2C12 muscle cells is on record as “increased the rate of glucose uptake in a dose dependent manner”. Besides, the “PM content of GLUT4 proteins” value in the series with GLUT4 is given as 180 % of basal. In addition, in the series on IRS1 and AKT, the “phosphorylation of IRS1 and AKT” value is “had no effects on phosphorylation of IRS1 and AKT”. In addition, the “blood glucose in insulin-resistant obese db/db mice” value in the series on C57BLKSJ-db/db mice is listed as “dropped to near normal levels”. For the same molecule, in the series on 3T3-L1 adipocytes [2] (20 μM, 0 to 20 min), the “incubation time at which glucose uptake was maximally increased” value was 10 min. For the same molecule, in the series with 3T3-L1 adipocytes [2] (setting [6]), the “concentration of initial statistically significant effect on glucose uptake” value worked out at 1 µM and the “concentration of maximal effect on glucose uptake” value is 20 µM. In addition, the “time and dose dependence of glucose uptake” value with 3T3-L1 adipocytes [2] (3T3-L1 adipocytes, various concentrations) is “time- and dose-dependent increase in glucose uptake”. The “stimulation of glucose uptake” value in the series with 3T3-L1 adipocytes [2] is reported as “specifically stimulated glucose uptake”. Besides, in the series on 3T3-L1 adipocytes [2] (listed as palmytoyl LPC), the “stimulation of glucose uptake” value is reported as “stimulated glucose uptake”. The cytotoxicity entry in the series with 3T3-L1 adipocytes [3] is listed as “not cytotoxic”. The “change in blood insulin levels” value in the series on male ICR mice [4] is recorded as “not due to changes in blood insulin levels”. Besides, in the series on male ICR mice [5] (15 or 30 μmol/kg i.v.), the “time to statistically significant fall in blood glucose” value is ≤ 30 min. Besides, the “blood glucose levels in ICR mice” value in the series on male ICR mice [5] (15 or 30 μmol/kg i.v., acute) is “statistically significant fall in blood glucose levels”. Besides, in the series with male ICR mice [5] (doses equimolar to 30 μmol/kg i.v., ICR mice), the “blood glucose lowering, comparison of lysophospholipid species” value is given as “significant effect on the blood glucose lowering”.
